{"source": "patent US7985733B1", "about": "“Buffer-based method for preparing bivalirudin drug product” (The Medicines Company, priority 2010, dated 2011)", "origin": "cited, not measured here", "key": {"[1]": {"details": "25° C."}, "[2]": {"details": "pH at which the molecule carries no net charge"}, "[3]": {"details": "statement of CN 101244043"}}}
{"compound": "O=S(=O)(O)CCN1CCN(CCS(=O)(=O)O)CC1", "note": "[Piperazine-1,4-bis(2-ethanesulfonic acid)]", "values": [{"measurement": "pKa", "setting": "[1]", "value": 6.8}]}
{"compound": "CC[C@H](C)[C@H](NC(=O)[C@H](CCC(=O)O)NC(=O)[C@H](CCC(=O)O)NC(=O)[C@H](Cc1ccccc1)NC(=O)[C@H](CC(=O)O)NC(=O)CNC(=O)[C@H](CC(N)=O)NC(=O)CNC(=O)CNC(=O)CNC(=O)CNC(=O)[C@@H]1CCCN1C(=O)[C@H](CCCNC(=N)N)NC(=O)[C@@H]1CCCN1C(=O)[C@H](N)Cc1ccccc1)C(=O)N1CCC[C@H]1C(=O)N[C@@H](CCC(=O)O)C(=O)N[C@@H](CCC(=O)O)C(=O)N[C@@H](Cc1ccc(O)cc1)C(=O)N[C@@H](CC(C)C)C(=O)O", "note": "[bivalirudin, D-Phenylalanyl-L-Prolyl-L-Arginyl-L-Prolyl-Glycyl-Glycyl-Glycyl-Glycyl-L-Asparagyl-Glycyl-L-Aspartyl-L-Phenylalanyl-L-Glutamyl-L-Glutamyl-L-Isoleucyl-L-Prolyl-L-Glutamyl-L-Glutamyl-L-Tyrosyl-L-Leucine]", "values": [{"measurement": "isoelectric point (pI)", "setting": "[2]", "value": "about 3.6"}, {"measurement": "solubility in water", "setting": "[3]", "value": "easily soluble in water"}]}
{"compound": "Maleate", "values": [{"measurement": "pKa (pK1)", "setting": "[1]", "value": 2.0}, {"measurement": "pKa (pK2)", "setting": "[1]", "value": 6.2}]}
